Key:
Format in all cases: functional
SF-268 = assay: Cytotoxicity against human SF268 cells assessed as growth at 100 uM after 48 hrs by SRB protein assay relative to control; details: SF-268, 48 h, read-out: Activity
NCI-H460 = assay: Cytotoxicity against human […] cells assessed as growth at 100 uM after 48 hrs by SRB protein assay relative to control; details: NCI-H460, 48 h, read-out: Activity
MCF7 = assay: Cytotoxicity against human MCF7 cells assessed as growth at 100 uM after 48 hrs by SRB protein assay relative to control; details: MCF7, 48 h, read-out: Activity

COc1ccc(/C=N/NC(=O)Cc2csc3nc(-c4ccc(Br)cc4)cn23)cc1
growth at 100 µM (SF-268): 56% | growth at 100 µM (NCI-H460): 34% | growth at 100 µM (MCF7): 46%

CN(C)c1ccc(/C=N/NC(=O)Cc2csc3nc(-c4ccc(Br)cc4)cn23)cc1
growth at 100 µM (SF-268): 77% | growth at 100 µM (NCI-H460): 69% | growth at 100 µM (MCF7): 82%

O=C(Cc1csc2nc(-c3ccc(Br)cc3)cn12)N/N=C/c1ccc(F)cc1
growth at 100 µM (SF-268): 84% | growth at 100 µM (NCI-H460): 35% | growth at 100 µM (MCF7): 71%

O=C(Cc1csc2nc(-c3ccc(Br)cc3)cn12)N/N=C/c1ccc(Br)cc1
growth at 100 µM (SF-268): 107% | growth at 100 µM (NCI-H460): 75% | growth at 100 µM (MCF7): 56%

Source: ChEMBL document CHEMBL1143799, “Synthesis and primary cytotoxicity evaluation of new imidazo[2,1-b]thiazole derivatives” (2007)
